Assay results reported in the supplement of paper PMC11451515.

System: NOMO1
Test: cell viability relative to DMSO control; higher = less cytotoxic
Details: 48 h
In short: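 Before seeding, each leukemia line was adapted for at least four passages in each medium. NOMO1 or SEM cells (500 cells/well) and P12-Ichikawa cells (1000 cells/well) went into 1536-well plates at 5 μl, then received library compounds in DMSO by pin dosing across 11 threefold concentrations, 47 μM to 0.79 nM. Readout was CellTiter-Glo One luminescence after 48 h at 37°C, and viability is given as a per-plate percentage of DMSO wells, with cell-free wells as background.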

[1] = HPLM + 10% dialyzed FBS, 0.000781 µM
[2] = HPLM + 10% dialyzed FBS, 0.00234 µM
[3] = HPLM + 10% dialyzed FBS, 0.00702 µM
[4] = HPLM + 10% dialyzed FBS, 0.0211 µM
[5] = HPLM + 10% dialyzed FBS, 0.0632 µM
[6] = HPLM + 10% dialyzed FBS, 0.19 µM
[7] = HPLM + 10% dialyzed FBS, 0.569 µM
[8] = HPLM + 10% dialyzed FBS, 1.71 µM
[9] = HPLM + 10% dialyzed FBS, 5.12 µM
[10] = HPLM + 10% dialyzed FBS, 15.4 µM
[11] = HPLM + 10% dialyzed FBS, 46.1 µM
[12] = RPMI 5 mM glucose + 10% FBS, 0.000781 µM
[13] = RPMI 5 mM glucose + 10% FBS, 0.00234 µM
[14] = RPMI 5 mM glucose + 10% FBS, 0.00702 µM
[15] = RPMI 5 mM glucose + 10% FBS, 0.0211 µM
[16] = RPMI 5 mM glucose + 10% FBS, 0.0632 µM
[17] = RPMI 5 mM glucose + 10% FBS, 0.19 µM
[18] = RPMI 5 mM glucose + 10% FBS, 0.569 µM
[19] = RPMI 5 mM glucose + 10% FBS, 1.71 µM
[20] = RPMI 5 mM glucose + 10% FBS, 5.12 µM
[21] = RPMI 5 mM glucose + 10% FBS, 15.4 µM
[22] = RPMI 5 mM glucose + 10% FBS, 46.1 µM
[23] = RPMI 5 mM glucose + 10% dialyzed FBS, 0.000781 µM
[24] = RPMI 5 mM glucose + 10% dialyzed FBS, 0.00234 µM
[25] = RPMI 5 mM glucose + 10% dialyzed FBS, 0.00702 µM
[26] = RPMI 5 mM glucose + 10% dialyzed FBS, 0.0211 µM
[27] = RPMI 5 mM glucose + 10% dialyzed FBS, 0.0632 µM
[28] = RPMI 5 mM glucose + 10% dialyzed FBS, 0.19 µM
[29] = RPMI 5 mM glucose + 10% dialyzed FBS, 0.569 µM
[30] = RPMI 5 mM glucose + 10% dialyzed FBS, 1.71 µM
[31] = RPMI 5 mM glucose + 10% dialyzed FBS, 5.12 µM
[32] = RPMI 5 mM glucose + 10% dialyzed FBS, 15.4 µM
[33] = RPMI 5 mM glucose + 10% dialyzed FBS, 46.1 µM

Row | Compound | cell viability [1] [%] | cell viability [2] [%] | cell viability [3] [%] | cell viability [4] [%] | cell viability [5] [%] | cell viability [6] [%] | cell viability [7] [%] | cell viability [8] [%] | cell viability [9] [%] | cell viability [10] [%] | cell viability [11] [%] | cell viability [12] [%] | cell viability [13] [%] | cell viability [14] [%] | cell viability [15] [%] | cell viability [16] [%] | cell viability [17] [%] | cell viability [18] [%] | cell viability [19] [%] | cell viability [20] [%] | cell viability [21] [%] | cell viability [22] [%] | cell viability [23] [%] | cell viability [24] [%] | cell viability [25] [%] | cell viability [26] [%] | cell viability [27] [%] | cell viability [28] [%] | cell viability [29] [%] | cell viability [30] [%] | cell viability [31] [%] | cell viability [32] [%] | cell viability [33] [%]
1 | O=C(Nc1ccc([N+](=O)[O-])cc1Cl)c1cc(Cl)ccc1O | 103 | 94.9 | 99.2 | 107 | 98.7 | 120 | 111 | 57.4 | 30 | 40.3 | 31.7 | 85.1 | 86.4 | 84.1 | 93 | 94.5 | 89.1 | 82.7 | 62.3 | 32.5 | 72.8 | 48.7 | 88.8 | 94.3 | 91.3 | 90.9 | 103 | 96.4 | 101 | 50.8 | 34.6 | 50.9 | 47.9
2 | CNC(=O)c1ccc(N2C(=S)N(c3ccc(C#N)c(C(F)(F)F)c3)C(=O)C2(C)C)cc1F | 87.7 | 114 | 105 | 125 | 117 | 127 | 120 | 115 | 143 | 127 | 111 | 93 | 124 | 121 | 118 | 125 | 111 | 111 | 121 | 123 | 121 | 115 | 102 | 112 | 103 | 113 | 121 | 116 | 124 | 126 | 115 | 121 | 114
3 | NCCCCCC(=O)O | 97.6 | 95.2 | 104 | 88.4 | 107 | 119 | 110 | 110 | 96.3 | 97 | 99.1 | 91.2 | 94.7 | 108 | 94.2 | 102 | 107 | 86.4 | 92.5 | 97.1 | 88.2 | 95.9 | 80.4 | 92.8 | 107 | 93.4 | 97.3 | 103 | 92.7 | 87.8 | 93.9 | 85.6 | 96.4
4 | O=C(C[C@@H]1C/C=C\CCC(=O)O[C@H](c2ccccc2)CNC1=O)NCc1ccc(Cl)cc1 | 112 | 125 | 117 | 125 | 111 | 138 | 133 | 114 | 121 | 118 | 114 | 87.2 | 106 | 120 | 109 | 104 | 115 | 114 | 102 | 109 | 98.5 | 110 | 92.2 | 114 | 99.3 | 111 | 113 | 117 | 120 | 125 | 105 | 111 | 99.5
5 | CO[C@@H]1[C@@H](OC(N)=O)[C@@H](O)[C@H](OC2=CC=C3\C(=C(NC(=O)C4=CC=C([O-])C(=C4)CC=C(C)C)/C(=O)OC3=C2C)O)OC1(C)C | 110 | 111 | 122 | 114 | 109 | 120 | 101 | 91.9 | 93.2 | 87 | 31.8 | 91.4 | 101 | 96.6 | 98.1 | 111 | 102 | 116 | 110 | 101 | 86.6 | 26.2 | 114 | 118 | 116 | 118 | 113 | 97.5 | 117 | 120 | 88.5 | 83.9 | 35.9
6 | CC(=O)Oc1cc2c(s1)CCN(C(C(=O)C1CC1)c1ccccc1F)C2.Cl (stereo unspecified) | 90.3 | 106 | 104 | 117 | 98.3 | 107 | 116 | 64.7 | 58 | 42.7 | 16 | 98.5 | 92.7 | 95.5 | 94.3 | 97.3 | 108 | 91.1 | 76.8 | 64.4 | 51.7 | 18.7 | 88 | 95.6 | 100 | 101 | 90.4 | 99.6 | 103 | 86.4 | 62.1 | 40.3 | 25.1
7 | O=C(O)[C@@H](c1ccc(OCc2ccc3ccccc3n2)cc1)C1CCCC1 | 118 | 114 | 118 | 126 | 106 | 119 | 115 | 119 | 110 | 109 | 90.5 | 104 | 117 | 107 | 109 | 125 | 111 | 104 | 121 | 113 | 102 | 120 | 119 | 101 | 122 | 113 | 123 | 119 | 103 | 108 | 106 | 100 | 95.4
